Earlier results, collected in patent publication US20180333352A1, “TOPICAL FORMULATIONS AND USES THEREOF” (SUN PHARMA GLOBAL FZE, priority 2015, published 2018).

Experiments:
[1] = system: T-cell adhesion to ICAM-1 expressing cells; details: in vitro
IFNγ, TNFα, IL-2 = details: in vitro

Row | Solubility in ethyl alcohol and methyl alcohol (ethyl alcohol, methyl alcohol) | Solubility in water (water) | SMILES | T-cell adhesion to ICAM-1 expressing cells [1] | Secretion of key inflammatory cytokines (IFNγ, TNFα, IL-2) (IFNγ, TNFα, IL-2)
1 | very soluble | only slightly soluble | CCNC(=O)CCC/C=C\C[C@@H]1[C@@H](/C=C/[C@@H](O)CCc2ccccc2)[C@H](O)C[C@@H]1O [Bimatoprost, (Z)-7-[(1R,2R,3R,5 S)-3,5-Dihydroxy-2 [(1E,3S)-3-hydroxy-5-phenyl-1-pentenyl]cyclopentyl]-5-N-ethylheptenamide] | – | –
2 | – | – | CS(=O)(=O)c1cccc(C[C@H](NC(=O)c2c(Cl)cc3c(c2Cl)CCN(C(=O)c2ccc4ccoc4c2)C3)C(=O)O)c1 [lifitegrast] | inhibits | inhibits
